{
  "source": "patent US7998978B2",
  "about": "(Pfizer Inc., priority 2006, dated 2011)",
  "data": [
    {"target": "T1, JNK1α1 (Homo sapiens, UniProt P45983)", "T1 construct": "catalytic domain containing amino acids 1-364 and N-terminal hexahistidine tag; hexahistidine (His6) (N); made in house; host or cells: E. coli BL21 (DE3)", "T1 sequence (P45983 1-364)": "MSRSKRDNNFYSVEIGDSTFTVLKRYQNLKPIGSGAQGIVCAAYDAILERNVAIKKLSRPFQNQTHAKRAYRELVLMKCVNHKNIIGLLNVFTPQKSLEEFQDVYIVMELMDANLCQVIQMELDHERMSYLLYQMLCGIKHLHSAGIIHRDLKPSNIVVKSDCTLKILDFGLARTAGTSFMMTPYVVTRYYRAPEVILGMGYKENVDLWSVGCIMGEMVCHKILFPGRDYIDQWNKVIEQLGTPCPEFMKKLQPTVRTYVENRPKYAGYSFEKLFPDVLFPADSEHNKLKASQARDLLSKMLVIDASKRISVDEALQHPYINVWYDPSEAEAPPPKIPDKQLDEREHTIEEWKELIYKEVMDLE", "test": "Coupled spectrophotometric (PK/LDH) JNK1α1 assay: % inhibition and Ki determination", "format": "biochemical", "conditions": "JNK-1", "summary_of_the_method": "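Initial rates were taken from the absorbance decrease at 340 nm at 30° C. Ki was fitted with a tight-binding model over 11 concentrations (top 100 μM); single-point inhibition was tested at 1 or 10 μM.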", "units": {"Ki": "µM"}, "values": [
      {"compound": "Cc1cccc(NC(=O)c2ccc3cnc(N[C@H]4CC[C@H](O)CC4)nc3c2)n1", "note": "[Example 369, 2-[(trans-4-hydroxycyclohexyl)amino]-N-(6-methylpyridin-2-yl)quinazoline-7-carboxamide]", "Ki": 2.31},
      {"compound": "O=C(NCCN1CCCCC1=O)c1ccc2cnc(N[C@H]3CC[C@H](O)CC3)nc2c1", "note": "[Example 370, 2-[(trans-4-hydroxycyclohexyl)amino]-N-(2-(2-oxopiperidin-1-yl)ethyl]quinazoline-7-carboxamide]", "Ki": 2.47},
      {"compound": "CC(=O)N1CC[C@@H](NC(=O)c2ccc3cnc(N[C@H]4CC[C@H](O)CC4)nc3c2)C1", "note": "[Example 371, N-[(3R)-1-acetylpyrrolidin-3-yl]-2-[(trans-4-hydroxycyclohexyl)amino]quinazoline-7-carboxamide]", "Ki": 2.49},
      {"compound": "O=C(N[C@H](CO)c1ccccc1)c1ccc2cnc(N[C@H]3CC[C@H](O)CC3)nc2c1", "note": "[Example 372, 2-[(trans-4-hydroxycyclohexyl)amino]-N-[(1S)-2-hydroxy-1-phenylethyl]quinazoline-7-carboxamide]", "Ki": 0.0735},
      {"compound": "O=C(N[C@H](CO)c1ccccc1)c1ccc2cnc(NC3CCCCC3)nc2c1", "note": "[Example 373, 2-(cyclohexylamino)-N-[(1S)-2-hydroxy-1-phenylethyl]quinazoline-7-carboxamide]", "Ki": 0.074},
      {"compound": "CC(C)C[C@@H](CO)NC(=O)c1ccc2cnc(NC3CCCCC3)nc2c1", "note": "[Example 374, 2-(cyclohexylamino)-N-[(1S)-1-(hydroxymethyl)-3-methylbutyl]quinazoline-7-carboxamide]", "Ki": 0.102},
      {"compound": "CC(C)C[C@@H](CO)NC(=O)c1ccc2cnc(N[C@H]3CC[C@H](O)CC3)nc2c1", "note": "[Example 375, 2-[(trans-4-hydroxycyclohexyl)amino]-N-[(1S)-1-(hydroxymethyl)-3-methylbutyl]quinazoiine-7-carboxamide]", "Ki": 0.107},
      {"compound": "CCC[C@@H](CO)NC(=O)c1ccc2cnc(NC3CCCCC3)nc2c1", "note": "[Example 376, 2-(cyclohexylamino)-N-[(1S)-1-(hydroxymethyl)butyl]quinazoline-7-carboxamide]", "Ki": 0.139},
      {"compound": "CCC[C@@H](CO)NC(=O)c1ccc2cnc(N[C@H]3CC[C@H](O)CC3)nc2c1", "note": "[Example 377, 2-[(trans-4-hydroxycyclohexyl)amino]-N-[(1S)-1-(hydroxymethyl)butyl]quinazoline-7-carboxamide]", "Ki": 0.147},
      {"compound": "CC[C@H](C)[C@@H](CO)NC(=O)c1ccc2cnc(N[C@H]3CC[C@H](O)CC3)nc2c1", "note": "[Example 378, 2-((trans-4-hydroxycyclohexyl)amino]-N-[(1S,2S)-1-(hydroxymethyl)-2-methylbutyl]quinazoline-7-carboxamide]", "Ki": 0.16},
      {"compound": "O=C(NC(CO)c1ccccc1)c1ccc2cnc(NC3CCCC3)nc2c1", "note": "(stereo not drawn) [Example 379, 2-(cyclopentylamino)-N-(2-hydroxy-1-phenylethyl)quinazoline-7-carboxamide]", "Ki": 0.177},
      {"compound": "CC[C@H](C)[C@@H](CO)NC(=O)c1ccc2cnc(NC3CCCCC3)nc2c1", "note": "[Example 380, 2-(cyclohexylamino)-N-[(1S,2S)-1-(hydroxymethyl)-2-methylbutyl]quinazoline-7-carboxamide]", "Ki": 0.187},
      {"compound": "CC(C)[C@@H](CO)NC(=O)c1ccc2cnc(N[C@H]3CC[C@H](O)CC3)nc2c1", "note": "[Example 382, 2-[(trans-4-hydroxycyclohexyl)amino]-N-[(1S)-1-(hydroxymethyl)-2-methylpropyl]quinazoline-7-carboxamide]", "Ki": 0.195},
      {"compound": "O=C(NC(CO)c1ccccc1)c1ccc2cnc(NC3CCC3)nc2c1", "note": "(stereo not drawn) [Example 383, 2-(cyclobutylamino)-N-(2-hydroxy-1-phenylethyl)quinazoline-7-carboxamide]", "Ki": 0.2},
      {"compound": "O=C(N[C@H](CO)c1ccccc1)c1ccc2cnc(NC3CCCC3)nc2c1", "note": "[Example 384, 2-(cyclopentylamino)-N-[(1S)-2-hydroxy-1-phenylethyl]quinazoline-7-carboxamide]", "Ki": 0.257},
      {"compound": "CC(C)Nc1ncc2ccc(C(=O)NC(CO)c3ccccc3)cc2n1", "note": "(stereo not drawn) [Example 385, N-(2-hydroxy-1-phenylethyl)-2-(isopropylamino)quinazoline-7-carboxamide]", "Ki": 0.263},
      {"compound": "O=C(N[C@H](CO)CC1CCCCC1)c1ccc2cnc(N[C@H]3CC[C@H](O)CC3)nc2c1", "note": "[Example 386, N-[(1S)-2-cyclohexyl-1-(hydroxymethyl)ethyl]-2-[(trans-4-hydroxycyclohexyl)amino]quinazoline-7-carboxamide]", "Ki": 0.271},
      {"compound": "CCC[C@@H](CO)NC(=O)c1ccc2cnc(NC3CCCC3)nc2c1", "note": "[Example 387, 2-(cyclopentylamino)-N-[(1S)-1-(hydroxymethyl)butyl]quinazoline-7-carboxamide]", "Ki": 0.297},
      {"compound": "CC[C@@H](CO)NC(=O)c1ccc2cnc(NC3CCCCC3)nc2c1", "note": "[Example 388, 2-(cyctohexylamino)-N-[(1S)-1-(hydroxymethyl)propyl]quinazoline-7-carboxamide]", "Ki": 0.303},
      {"compound": "CC(C)[C@@H](CO)NC(=O)c1ccc2cnc(NC3CCCCC3)nc2c1", "note": "[Example 389, 2-(cyclohexylamino)-N-[(1S)-1-(hydroxymethyl)-2-methylpropyl]quinazoline-7-carboxamide]", "Ki": 0.318},
      {"compound": "CC(C)C[C@@H](CO)NC(=O)c1ccc2cnc(NC3CCCC3)nc2c1", "note": "[Example 390, 2-(cyclopentylamino)-N-[(1S)-1-(hydroxymethyl)-3-methylbutyl]quinazoline-7-carboxamide]", "Ki": 0.333},
      {"compound": "CC(C)C[C@@H](CO)NC(=O)c1ccc2cnc(NC(C)C)nc2c1", "note": "[Example 391, N-[(1S)-1-(hydroxymethyl)-3-methylbutyl]-2-(isopropylamino)quinazoline-7-carboxamide]", "Ki": 0.365},
      {"compound": "O=C(N[C@H](CO)c1ccccc1)c1ccc2cnc(NC3CCC3)nc2c1", "note": "[Example 392, 2-(cyclobutylamino)-N-[(1S)-2-hydroxy-1-phenylethyl]quinazoline-7-carboxamide]", "Ki": 0.385},
      {"compound": "O=C(N[C@H](CO)CC1CCCCC1)c1ccc2cnc(NC3CCCCC3)nc2c1", "note": "[Example 393, 2-(cyclohexylamino)-N-[(1S)-2-cyclohexyl-1-(hydroxymethyl)ethyl]quinazoline-7-carboxamide]", "Ki": 0.387},
      {"compound": "CC(C)Nc1ncc2ccc(C(=O)N[C@H](CO)c3ccccc3)cc2n1", "note": "[Example 394, N-[(1S)-2-hydroxy-1-phenylethyl]-2-(isopropylamino)quinazoline-7-carboxamide]", "Ki": 0.391},
      {"compound": "O=C(N[C@H](CO)Cc1ccccc1)c1ccc2cnc(NC3CCCCC3)nc2c1", "note": "[Example 395, N-[(1S)-1-benzyl-2-hydroxyethyl]-2-(cyclohexylamino)quinazoline-7-carboxamide]", "Ki": 0.422},
      {"compound": "CC[C@H](C)[C@@H](CO)NC(=O)c1ccc2cnc(NC3CCCC3)nc2c1", "note": "[Example 396]", "Ki": 0.424},
      {"compound": "CC(C)C[C@@H](CO)NC(=O)c1ccc2cnc(NC3CCC3)nc2c1", "note": "[Example 397, 2-(cyclobutylamino)-N-[(1S)-1-(hydroxymethyl)-3-methylbutyl]quinazoline-7-carboxamide]", "Ki": 0.428},
      {"compound": "CCC[C@@H](CO)NC(=O)c1ccc2cnc(NC3CCC3)nc2c1", "note": "[Example 398, 2-(cyclobutylamino)-N-[(1S)-1-(hydroxymethyl)butyl]quinazoline-7-carboxamide]", "Ki": 0.447},
      {"compound": "C[C@@H](CO)NC(=O)c1ccc2cnc(NC3CCCCC3)nc2c1", "note": "[Example 399, 2-(cyclohexylamino)-N-[(1S)-2-hydroxy-1-methylethyl]quinazoline-7-carboxamide]", "Ki": 0.461}
    ]}
  ]
}
